Data reported in US20250163057A1, “DCN-1 MODULATING COMPOUNDS AND METHODS OF USE THEREOF” (Cellarity, Inc., priority 2023, published 2025).
Where two headings read alike, the source gives them in different places.

What was measured:
[1] = test system: Cullin-3 (CUL3) neddylation; experiment: AlphaLISA assay for Cullin-3 (CUL3) neddylation in TF 1 cells; type: cell-based; settings: 3 hours treatment
Summary of the method: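 Neddylated CUL3 was quantified by AlphaLISA in lysates of TF 1 cells exposed for 3 h to test compound in IMDM without supplements. Percent inhibition set between vehicle and 1 μM DI-1548 positive control; IC50 derived by Hill-equation fitting of dose-response curves.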

[2] = biological target: DCN1 (DCUND1) protein PONY domain (Homo sapiens (Human), UniProt Q96GG9); experiment: TR-FRET assay, DCN1 binding with FAM-labeled probe
Chain of DCN1 (DCUND1) protein PONY domain (Q96GG9 60-248): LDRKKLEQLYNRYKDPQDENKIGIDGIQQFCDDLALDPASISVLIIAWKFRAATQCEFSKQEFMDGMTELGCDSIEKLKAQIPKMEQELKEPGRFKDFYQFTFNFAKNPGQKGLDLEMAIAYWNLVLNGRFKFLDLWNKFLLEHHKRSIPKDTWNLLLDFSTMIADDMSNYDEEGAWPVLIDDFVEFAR
Summary of the method: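 Biotinylated DCN1 PONY domain, labeled with streptavidin-Tb, was competed against a FAM-labeled non-covalent DCN1 inhibitor probe in buffer with TritonX and 200 mM NaCl. Conditions were 5 nM DCN1 with 20 nM FAM-probe, or 0.31 nM DCN1 with 100 nM FAM-plus 800 nM unlabeled probe. The TR-FRET ratio was read at 1, 5 and 24 h (0.1% DMSO).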

DCN1 protein = DCN1 protein (Homo sapiens (Human), UniProt Q96GG9); experiment: Intact Protein MS Analysis with the RapidFire-TOF System (covalent adduct formation); type: binding; settings: MS Emax; 400 nM DCN1, 3 hours at room temperature
Chain of DCN1 protein (Q96GG9 whole entry): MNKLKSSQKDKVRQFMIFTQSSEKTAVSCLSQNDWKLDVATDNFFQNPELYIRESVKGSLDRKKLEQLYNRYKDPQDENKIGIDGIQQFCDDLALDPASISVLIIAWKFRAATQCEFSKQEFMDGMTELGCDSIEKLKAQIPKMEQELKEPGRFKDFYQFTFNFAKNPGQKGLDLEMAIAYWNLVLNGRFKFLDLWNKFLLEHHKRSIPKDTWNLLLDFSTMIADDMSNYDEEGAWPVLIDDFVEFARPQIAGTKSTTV
Summary of the method: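 Tag-cleaved human DCN1 (400 nM) expressed in E. coli, in 25 mM Tris-HCl, 200 mM NaCl, 1 mM DTT, was incubated with 11 compound concentrations for 3 h at room temperature and quenched with 0.2% formic acid. Intact-protein Q-TOF MS with deconvolution detected the compound adduct mass.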

[3] = 24 hr after treatment with compound, read-out: TR FRET IC50 24 hr
[4] = read-out: TR FRET IC50 1 hr, 1 hr after treatment with compound
[5] = TR FRET IC50 1 hr (nM), 1 hr after treatment with compound

SMILES | IC50 ([1]; Homo sapiens, TF-1, 3 h) [nM] | IC50 [2, 3] [nM] | IC50 [2, 4] [nM] | % Adduct Formation (DCN1 protein) | IC50 [1] [nM] | IC50 [2, 5] [nM]
C=C(CN1C[C@@H]2C[C@H]1CO2)C(=O)NCc1nn(-c2ccccc2)c2c1[C@H](c1ccc(F)cc1)[C@H](NC(=O)c1cccc(C(F)(F)F)c1)C(=O)N2CC (mixture of isomers) [Compound I-12] | ≤ 100 | ≤ 200 | ≤ 200 | +++ (MS Emax % adduct formation greater than 80.0 and less than or equal to 100.0) | – | –
CCN1C(=O)[C@@H](NC(=O)c2cccc(C(F)(F)F)c2)[C@@H](c2ccc(F)cc2)c2c([C@@H](CN(C)C)NC#N)nn(-c3ccccc3)c21 (mixture of isomers) [Compound I-272] | ≤ 100 | ≤ 200 | ≤ 200 | +++ (MS Emax % adduct formation greater than 80.0 and less than or equal to 100.0) | – | –
CCN1C(=O)[C@@H](NC(=O)c2cccc(C(F)(F)F)c2)[C@@H](c2ccc(F)cc2)c2c(C(=O)N3CCOC[C@H]3C#N)nn(-c3ccccc3)c21 (mixture of isomers) [Compound I-295] | – | ≤ 200 | – | +++ (MS Emax % adduct formation greater than 80.0 and less than or equal to 100.0) | ≤ 100 | 1000 to 3000
CCN1C(=O)[C@@H](NC(=O)c2cccc(C(F)(F)F)c2)[C@@H](c2ccc(F)cc2)c2c(C(=O)N3CCOC[C@@H]3C#N)nn(-c3ccccc3)c21 (mixture of isomers) [Compound I-297] | ≤ 100 | ≤ 200 | – | +++ (MS Emax % adduct formation greater than 80.0 and less than or equal to 100.0) | – | 1000 to 3000
CCN1C(=O)[C@@H](NC(=O)c2cccc(C(F)(F)F)c2)[C@@H](c2ccc(F)cc2)c2c(C(=O)N(C)[C@@H](C#N)CCN3CC4CCC(C3)O4)nn(-c3ccccc3)c21 (mixture of isomers) [Compound I-319] | ≤ 100 | ≤ 200 | – | ++ (MS Emax % adduct formation greater than 30.0 and less than or equal to 80.0) | – | 1000 to 3000
CCN1C(=O)[C@@H](NC(=O)c2cccc(C(F)(F)F)c2)[C@@H](c2ccc(F)cc2)c2c(C(=O)N(CC#N)CCN3CC4CC(C3)O4)nn(-c3ccccc3)c21 (mixture of isomers) [Compound I-322] | ≤ 100 | ≤ 200 | ≤ 200 | +++ (MS Emax % adduct formation greater than 80.0 and less than or equal to 100.0) | – | –
CCN1C(=O)[C@@H](NC(=O)c2cccc(C(F)(F)F)c2)[C@@H](c2ccc(F)cc2)c2c(C(=O)N(CC#N)CCN3CC4CCC(C3)O4)nn(-c3ccccc3)c21 (mixture of isomers) [Compound I-324] | ≤ 100 | ≤ 200 | – | +++ (MS Emax % adduct formation greater than 80.0 and less than or equal to 100.0) | – | 200 to 1000
CCN1C(=O)[C@@H](NC(=O)c2cccc(C(F)(F)F)c2)[C@@H](C2CC2)c2c(C(=O)N(C)C(C)C#N)nn(C3CCOCC3)c21 (mixture of isomers) [Compound I-349] | ≤ 100 | ≤ 200 | ≤ 200 | +++ (MS Emax % adduct formation greater than 80.0 and less than or equal to 100.0) | – | –
N#C[C@@H]1C[C@H]2C[C@H]2N1C(=O)c1nn(C2CCOCC2)c2c1[C@H](C1CC1)[C@H](NC(=O)c1cccc(C(F)(F)F)c1)C(=O)N2 (mixture of isomers) [Compound I-385] | ≤ 100 | ≤ 200 | – | +++ (MS Emax % adduct formation greater than 80.0 and less than or equal to 100.0) | – | 1000 to 3000
C=C(CN1CCN(C2COC2)CC1)C(=O)NCc1nn(-c2ccccc2)c2c1[C@H](c1ccc(F)cc1)[C@H](NC(=O)c1cccc(C(F)(F)F)c1)C(=O)N2CC (racemic) [Compound I-57] | ≤ 100 | ≤ 200 | ≤ 200 | ++ (MS Emax % adduct formation greater than 30.0 and less than or equal to 80.0) | – | –
C=C(CN1CCOCC1)C(=O)NCc1nn(-c2ccccc2)c2c1[C@H](c1ccc(F)cc1)[C@H](NC(=O)c1cccc(C(F)(F)F)c1)C(=O)N2CC (racemic) [Compound I-67] | 100 to 1000 | ≤ 200 | ≤ 200 | + (MS Emax % adduct formation greater than or equal to 0.0 and less than or equal to 30.0) | – | –
CCN1C(=O)[C@@H](NC(=O)c2cccc(C(F)(F)F)c2)[C@@H](c2ccc(F)cc2)c2c(NC(=O)CC#N)nn(-c3ccccc3)c21 (racemic) [Compound I-80] | ≤ 100 | 1000 to 3000 | – | + (MS Emax % adduct formation greater than or equal to 0.0 and less than or equal to 30.0) | – | 1000 to 3000
CCN1C(=O)[C@@H](NC(=O)c2cccc(C(F)(F)F)c2)[C@@H](c2ccc(F)cc2)c2c(C#N)nn(-c3ccccc3)c21 (racemic) [Compound I-115, rac-N-((4R,5R)-3-cyano-7-ethyl-4-(4-fluorophenyl)-6-oxo-1-phenyl-4,5,6,7-tetrahydro-1H-pyrazolo[3,4-b]pyridine-5-yl)-3-(trifluoromethyl)benzamide] | – | > 3000 | – | + (MS Emax % adduct formation greater than or equal to 0.0 and less than or equal to 30.0) | – | > 3000
C/C=C/C(=O)NCc1nn(-c2ccccc2)c2c1[C@H](c1ccc(F)cc1)[C@H](NC(=O)c1cccc(C(F)(F)F)c1)C(=O)N2CC (racemic) [Compound I-123] | – | 200 to 1000 | – | + (MS Emax % adduct formation greater than or equal to 0.0 and less than or equal to 30.0) | – | 200 to 1000
CCN1C(=O)[C@@H](NC(=O)c2cccc(C(F)(F)F)c2)[C@@H](c2ccc(F)cc2)c2c(C/C=C/C(=O)OC)nn(-c3ccccc3)c21 (racemic) [Compound I-131, rac-methyl (E)-4-((4R,5R)-7-ethyl-4-(4-fluorophenyl)-6-oxo-1-phenyl-5-(3-(trifluoromethyl)benzamido)-4,5,6,7-tetrahydro-1H-pyrazolo[3,4-b]pyridin-3-yl)but-2-enoate] | – | 200 to 1000 | – | + (MS Emax % adduct formation greater than or equal to 0.0 and less than or equal to 30.0) | – | 1000 to 3000
C=C(C)C(=O)N(C)Cc1nn(-c2ccccc2)c2c1[C@H](c1ccc(F)cc1)[C@H](NC(=O)c1cccc(C(F)(F)F)c1)C(=O)N2CC (racemic) [Compound I-156] | – | 200 to 1000 | – | + (MS Emax % adduct formation greater than or equal to 0.0 and less than or equal to 30.0) | – | 200 to 1000
CCN1C(=O)[C@@H](NC(=O)c2cccc(C(F)(F)F)c2)[C@@H](c2ccc(F)cc2)c2c(NS(=O)(=O)CCl)nn(-c3ccccc3)c21 (racemic) [Compound I-163] | – | ≤ 200 | ≤ 200 | + (MS Emax % adduct formation greater than or equal to 0.0 and less than or equal to 30.0) | – | –
CCN1C(=O)[C@@H](NC(=O)c2cccc(C(F)(F)F)c2)[C@@H](c2ccc(F)cc2)c2c(C(=O)N(CC#N)CCCN(C)C)nn(-c3ccccc3)c21 (racemic) [Compound I-271] | ≤ 100 | ≤ 200 | ≤ 200 | +++ (MS Emax % adduct formation greater than 80.0 and less than or equal to 100.0) | – | –
CCN1C(=O)[C@@H](NC(=O)c2cccc(C(F)(F)F)c2)[C@@H](c2ccc(F)cc2)c2c(C(=O)N(C)CC#N)nn(-c3ccccc3)c21 (racemic) [Compound I-282] | – | ≤ 200 | ≤ 200 | +++ (MS Emax % adduct formation greater than 80.0 and less than or equal to 100.0) | ≤ 100 | –
CCN1C(=O)[C@@H](NC(=O)c2cccc(C(F)(F)F)c2)[C@@H](c2ccc(F)cc2)c2c(C(=O)N(CC#N)CCN3CCOCC3)nn(-c3ccccc3)c21 (racemic) [Compound I-320] | ≤ 100 | ≤ 200 | ≤ 200 | +++ (MS Emax % adduct formation greater than 80.0 and less than or equal to 100.0) | – | –
CCN1C(=O)[C@@H](NC(=O)c2cccc(C(F)(F)F)c2)[C@@H](c2ccc(F)cc2)c2c(CN(C)C(=O)[C@H](C)Cl)nn(-c3ccccc3)c21 (stereo in doubt) [Compound I-30] | – | 1000 to 3000 | > 3000 | + (MS Emax % adduct formation greater than or equal to 0.0 and less than or equal to 30.0) | – | –
CCN1C(=O)[C@@H](NC(=O)c2cccc(C(F)(F)F)c2)[C@@H](c2ccc(F)cc2)c2c(CN(C)C(=O)[C@H](C)Cl)nn(-c3ccccc3)c21 (stereo in doubt) [Compound I-33] | – | 1000 to 3000 | – | + (MS Emax % adduct formation greater than or equal to 0.0 and less than or equal to 30.0) | – | 1000 to 3000
CCN1C(=O)[C@@H](NC(=O)c2cccc(C(F)(F)F)c2)[C@@H](c2ccc(F)cc2)c2c(C(=O)N3CCCC[C@@H]3C#N)nn(-c3ccccc3)c21 [Compound I-121] | – | ≤ 200 | ≤ 200 | ++ (MS Emax % adduct formation greater than 30.0 and less than or equal to 80.0) | – | –
